Measured values from ChEMBL document CHEMBL4680234, “Antibacterial AZT derivative regulates metastasis of breast cancer cells” (Eur J Med Chem, 2020).
≈ marks a conversion by molar mass, not a printed value.

Assays:
Staphylococcus aureus [1] = experiment: Antibacterial activity against Staphylococcus aureus KCTC 1621 assessed as reduction in bacterial growth incubated for 18 to 22 hrs by spectrophotometry based broth microdilution method; assay type: functional; settings: time 18-22 hrs, read-out: MIC100
Bacillus subtilis [2] = experiment: Antibacterial activity against Bacillus subtilis KCTC 3068 assessed as reduction in bacterial growth incubated for 18 to 22 hrs by spectrophotometry based broth microdilution method; assay type: functional; settings: time 18-22 hrs, read-out: MIC100
Pseudomonas aeruginosa [3] = experiment: Antibacterial activity against Pseudomonas aeruginosa KCTC 1637 assessed as reduction in bacterial growth incubated for 18 to 22 hrs by spectrophotometry based broth microdilution method; assay type: functional; settings: time 18-22 hrs, read-out: MIC100
Escherichia coli [4] = experiment: Antibacterial activity against Escherichia coli KCTC 1682 assessed as reduction in bacterial growth incubated for 18 to 22 hrs by spectrophotometry based broth microdilution method; assay type: functional; settings: time 18-22 hrs, read-out: MIC100
Staphylococcus aureus [5] = experiment: Antimicrobial activity against methicillin-resistant Staphylococcus aureus CCARM 3090 assessed as reduction in microbial growth incubated for 18 to 24 hrs by broth microdilution method; assay type: functional; settings: time 18-24 hrs
Staphylococcus aureus [6] = experiment: Antimicrobial activity against methicillin-resistant Staphylococcus aureus CCARM 3095 assessed as reduction in microbial growth incubated for 18 to 24 hrs by broth microdilution method; assay type: functional; settings: time 18-24 hrs
Staphylococcus aureus [7] = experiment: Antimicrobial activity against methicillin-resistant Staphylococcus aureus CCARM 3089 assessed as reduction in microbial growth incubated for 18 to 24 hrs by broth microdilution method; assay type: functional; settings: time 18-24 hrs
Escherichia coli [8] = experiment: Potency index, ratio of melittin MIC to test compound MIC for antibacterial activity against Escherichia coli KCTC 1682; assay type: functional
Bacillus subtilis [9] = experiment: Potency index, ratio of melittin MIC to test compound MIC for antibacterial activity against Bacillus subtilis KCTC 3068; assay type: functional
Staphylococcus aureus [10] = experiment: Potency index, ratio of melittin MIC to test compound MIC for antibacterial activity against Staphylococcus aureus KCTC 1621; assay type: functional
Pseudomonas aeruginosa [11] = experiment: Potency index, ratio of melittin MIC to test compound MIC for antibacterial activity against Pseudomonas aeruginosa KCTC 1637; assay type: functional
[12] = Hemolytic activity in sheep RBC assessed as hemolysis at 4 ug/ml measured after 2 hrs by ELISA relative to control; assay type: ADME, cell-based, Ovis aries, Erythrocyte; settings: sheep red blood cells (erythrocytes), at 4 µg/mL, read-out: Activity
[13] = Therapeutic index, ratio of MHC for sheep RBC to geometric mean of peptide MIC for Staphylococcus aureus KCTC 1621; assay type: toxicity; settings: sheep red blood cells (erythrocytes), read-out: TI
[14] = Therapeutic index, ratio of MHC for sheep RBC to geometric mean of peptide MIC for Escherichia coli KCTC 1682; assay type: toxicity; settings: sheep red blood cells (erythrocytes), read-out: TI
[15] = Therapeutic index, ratio of MHC for sheep RBC to geometric mean of peptide MIC for Pseudomonas aeruginosa KCTC 1637; assay type: toxicity; settings: sheep red blood cells (erythrocytes), read-out: TI
[16] = Therapeutic index, ratio of MHC for sheep RBC to geometric mean of peptide MIC for Bacillus subtilis KCTC 3068; assay type: toxicity; settings: sheep red blood cells (erythrocytes), read-out: TI
Erythrocyte [17] = experiment: Hemolytic activity in sheep RBC measured after 2 hrs by ELISA; assay type: ADME, cell-based, Ovis aries
Erythrocyte [18] = experiment: Hemolytic activity in sheep RBC at 16 ug/ml measured after 2 hrs by ELISA; assay type: cell-based, Ovis aries; settings: dose 16 µg/ml

Structure (SMILES) | MIC (Staphylococcus aureus [1]) [µg/mL] | MIC (Bacillus subtilis [2]) [µg/mL] | MIC (Pseudomonas aeruginosa [3]) [µg/mL] | MIC (Escherichia coli [4]) [µg/mL] | further results
Cc1cn([C@H]2C[C@H](NC(=O)C3CCCCC3)[C@@H](CNC(=O)C3CCCCC3)O2)c(=O)nc1N(CCCN)CCCN | > 64 | 64 (≈ 112 µM) | 64 (≈ 112 µM) | > 64 | 
CCCCCC(=O)NC[C@H]1O[C@@H](n2cc(C)c(N(CCCNC(=N)N)CCCNC(=N)N)nc2=O)C[C@@H]1NC(=O)CCCCC | 32 (≈ 50.5 µM) | 32 (≈ 50.5 µM) | 16 (≈ 25.2 µM) | > 64 | 
O=C(O)c1cn(C2CC2)c2cc(N3CCNCC3)c(F)cc2c1=O [CIPROFLOXACIN] |  |  |  |  | MIC (Staphylococcus aureus [5]): 512 µg/mL; MIC (Staphylococcus aureus [6]): 512 µg/mL; MIC (Staphylococcus aureus [7]): 512 µg/mL
Cc1cn([C@H]2C[C@H](NC(=O)Cc3cccc4ccccc34)[C@@H](CNC(=O)Cc3cccc4ccccc34)O2)c(=O)nc1N(CCCN)CCCN | 16 (≈ 23.2 µM) | 4 (≈ 5.8 µM) | 8 (≈ 11.6 µM) | 64 (≈ 92.8 µM) | Ratio (Escherichia coli [8]): 4; Ratio (Bacillus subtilis [9]): 2; Ratio (Staphylococcus aureus [10]): 2; Ratio (Pseudomonas aeruginosa [11]): 2
CC[C@H](C)[C@H](NC(=O)CN)C(=O)NCC(=O)N[C@@H](C)C(=O)N[C@H](C(=O)N[C@@H](CC(C)C)C(=O)N[C@@H](CCCCN)C(=O)N[C@H](C(=O)N[C@@H](CC(C)C)C(=O)N[C@H](C(=O)N[C@H](C(=O)NCC(=O)N[C@@H](CC(C)C)C(=O)N1CCC[C@H]1C(=O)N[C@@H](C)C(=O)N[C@@H](CC(C)C)C(=O)N[C@H](C(=O)N[C@@H](CO)C(=O)N[C@@H](Cc1c[nH]c2ccccc12)C(=O)N[C@H](C(=O)N[C@@H](CCCCN)C(=O)N[C@@H](CCCNC(=N)N)C(=O)N[C@@H](CCCCN)C(=O)N[C@@H](CCCNC(=N)N)C(=O)N[C@@H](CCC(N)=O)C(=O)N[C@@H](CCC(N)=O)C(N)=O)[C@@H](C)CC)[C@@H](C)CC)[C@@H](C)O)[C@@H](C)O)C(C)C)C(C)C [MELITTIN] |  |  |  |  | hemolysis at 2 h, 4 ug/ml [12]: 12%; selectivity ratio [13]: 0.3; selectivity ratio [14]: 0.3; selectivity ratio [15]: 0.3; selectivity ratio [16]: 0.3; MHC (Erythrocyte [17]): 4 µg/mL
Cc1cn([C@H]2C[C@H](NC(=O)CC34CC5CC(CC(C5)C3)C4)[C@@H](CNC(=O)CC34CC5CC(CC(C5)C3)C4)O2)c(=O)nc1NCCNC(=N)N | 4 (≈ 5.91 µM) | 4 (≈ 5.91 µM) | > 64 | 64 (≈ 94.5 µM) | Ratio (Escherichia coli [8]): 2; selectivity ratio [13]: 0.9; Activity (Erythrocyte [18]): Non-Toxic; selectivity ratio [14]: 0.9; Ratio (Pseudomonas aeruginosa [11]): 2; selectivity ratio [15]: 0.9; selectivity ratio [16]: 0.9; MHC (Erythrocyte [17]): 43 µg/mL
Cc1cn([C@H]2C[C@H](NC(=O)Cc3cccc4ccccc34)[C@@H](CNC(=O)Cc3cccc4ccccc34)O2)c(=O)nc1N(CCCNC(=N)N)CCCNC(=N)N | 8 (≈ 10.3 µM) | 4 (≈ 5.17 µM) | 16 (≈ 20.7 µM) | 64 (≈ 82.7 µM) | Ratio (Bacillus subtilis [9]): 2
Cc1cn([C@H]2C[C@H](NC(=O)CCCc3ccccc3)[C@@H](CNC(=O)CCCc3ccccc3)O2)c(=O)nc1NCCNC(=N)N | 64 (≈ 104 µM) | 64 (≈ 104 µM) | 32 (≈ 51.9 µM) | > 64 | 
CCCCCC(=O)NC[C@H]1O[C@@H](n2cc(C)c(N(CCCN)CCCN)nc2=O)C[C@@H]1NC(=O)CCCCC | > 64 | 64 (≈ 116 µM) | 8 (≈ 14.6 µM) | > 64 | 
